From patent publication US9889146B2, “Benzoxaborole compounds and uses thereof” (priority 2012, dated 2018) come the findings set out here.

What all share (assay type): cell-based
The test system of one assay is E. coli (ESBL). As to the kind of experiment: microbe, parasite or virus in culture. As to conditions: Escherichia coli.
The subject of assay [1] is Enterobacter aerogenes (WT). As to the kind of experiment: microbe, parasite or virus in culture. As to conditions: Klebsiella aerogenes, Enterobacter aerogenes (WT).
Assay [2] has as its system Enterobacter cloacae (WT). As to the kind of experiment: microbe, parasite or virus in culture.
For another assay, the system named is P. aeruginosa. As to the kind of experiment: In vitro activity against P. aeruginosa clinical isolates. As to conditions: for % susceptible: P. aeruginosa, 2,008 clinical isolates, GSK2251052 based on potential susceptible breakpoint of ≦4 μg/mL. The protocol: GSK2251052 was tested for activity against P. aeruginosa, and its activity was compared to other antibiotics of known activity. The results are shown below in Tables 2a and 2b. Of 2,008 clinical isolates tested (from 2009-2010 subjects, of which 40% were from North America) greater than 90% were susceptible to GSK2251052 based on a potential susceptible breakpoint of ≦4 μg/mL.

For assay [3], the system named is E. coli ATCC 25922, K. pneumoniae ATCC 13883, and P. aeruginosa ATCC 27853. As to the kind of experiment: Spontaneous frequency of resistance, three strains summarised. The protocol: Spontaneous Resistance Frequency was determined in vitro for GSK2251052 and the resistance mutants in E. coli ATCC 25922, K. pneumoniae ATCC 13883, and P. aeruginosa ATCC 27853 strains were characterized. GSK2251052 was prepared as described in U.S. Pat. No. 7,816,344 (the entire contents of which are hereby incorporated by reference herein). LB broth, Mueller Hinton II broth (adjusted), and Difco noble agar were obtained from Becton Dickinson (Cockeysville, Md., USA). M9 minimal broth containing 1×M9 salt, 0.5 μg/ML thiamine, 1 mM MgSO4, 0.1 mM CaCl2, 2% glucose, was obtained from Teknova (Hollister, Calif., USA). Antibacterial agents ciprofloxacin, ceftazidime, chloramphenicol, gentamycin, kanamycin, polymixin B, tobramycin and trimethoprim, and amino acids were obtained from Sigma Chemicals (St. Louis, Mo., USA). Strains were obtained from ATCC (Manassas, Va., USA).
Selection of resistance to GSK2251052 was attempted by spreading various amounts of bacteria onto MHBII noble agar plates containing 4×MIC (minimum inhibitory concentration) or 10×MIC of GSK2251052. Colonies were counted after 24 hours and 48 hours incubation at 37° C. […] Frequency of resistance was determined by dividing the number of resistant mutants by the total number of cells plated as determined by plating dilutions of the overnight culture on LB plates.

Assay [4] concerns clinical isolates from the four subjects (E. coli, P. mirabilis, K. pneumoniae). As to the kind of experiment: Resistance in clinical isolates of the phase II clinical trial. How it is done: A comparative, dose-ranging study of GSK2251052 vs. imipenem-cilastatin in complicated lower urinary tract infection and pyelonephritis was undertaken with 210 targeted patients (20 actually enrolled) in a phase II clinical trial. The study was designed to determine the appropriate and safe dose for Phase III trials. Doses were 750 mg or 1500 mg twice a day, compared to an active comparator, with an independent safety review committee.
The phase II clinical trial identified four subjects who developed spontaneous resistance to GSK2251052 as evidenced by increased MICs (>32-fold) determined for the clinical isolates from the four subjects. Two of the resistant mutant strains identified were E. coli strains, one was a P. mirabilis strain, and one was a K. pneumoniae strain.

Where [5] appears, read: GSK2251052 breakpoint, read-out: susceptibility category of MIC90.
Setting [6] is: Pseudomonas aeruginosa, P. aeruginosa clinical isolates.

≈ marks a conversion by molar mass, not a printed value. Like-named read-outs stand apart in the source and are kept apart here. Bounds are passed on as bounds.

With `NC[C@H]1OB(O)c2c(OCCCO)cccc21` [GSK2251052, (S)-3-aminomethyl-7-(3-hydroxy-propoxy)-3h-benzo[c][1,2]oxaborol-1-ol], the MIC90 against E. coli (ESBL) was 1 µg/mL (≈ 4.22 µM); in the assay on E. coli (ESBL) (read-out: susceptibility category of MIC90) it was < 4 µg/mL; in assay [1] (199 isolates, read-out: MIC90) it was 1 µg/mL (≈ 4.22 µM); in assay [2] (202 isolates, read-out: MIC90) it was 1 µg/mL (≈ 4.22 µM); against P. aeruginosa (setting [6]) it was 4 µg/mL (≈ 16.9 µM). Besides, the susceptibility category of MIC90 in assay [1] (setting [5]) and in assay [2] (setting [5]) was < 4 µg/mL in each case. Moreover, in the assay with P. aeruginosa (P. aeruginosa clinical isolates), the “MIC Range” value was 0.06 to 64 µg/mL. Besides, the results for the “% susceptible” value in the assay on P. aeruginosa and in the assay with P. aeruginosa (listed as GSK2250152) were “greater than 90%” and 92.8%, respectively. Besides, the MIC50 (commonly an inhibitory concentration at the 50% level, which refers to growth in some studies and to a panel of isolates in others) against P. aeruginosa (setting [6]) worked out at 2 µg/mL (≈ 8.44 µM). Also, the “frequency of resistance, range” value in assay [3] (measured at 24 h) is 10^−7 to 10^−8; in assay [3] (three ATCC strains, 24 h and 48 h time points) it was 10^−7 to 10^−8. In assay [4] (baseline isolates tested), the “rates of spontaneous resistance” value was ~10^−7. For the same molecule, the “increase of MICs in clinical isolates” value in assay [4] (four subjects who developed spontaneous resistance, phase II trial) is reported as > 32 fold.
